# Laboratory results published in patent publication US20240416137A1, “PERSONALIZED BIOELECTROMAGNETIC THERAPEUTICS” (OCTANE INNOVATION INC., priority 2021, published 2024).
# Entries after “also recorded” stand apart in the source; their conditions may differ.
# Test system: MDA-MB-231 cells
# Assay: MDA-MB-231 proliferation culture, cell counts with cisplatin and/or EMF exposure
# Type: cell-based, human
# Conditions: for reduction of cell number (cell count): cisplatin 20 μM, positive control, no EMF exposure, 5 days culture
# Procedure: MDA-MB-231 cells, a human triple-negative breast cancer cell line, were obtained at passage 40 (Sigma: 92020424). The culture media used was high glucose DMEM (Gibco: 31053-028) supplemented with 1% GlutaMAX™ (Gibco: 35050-061) and 10% fetal bovine serum (Gibco).
# Cells were thawed from frozen (−150° C.), placed in a tube with warm media and spun down for 5 minutes at 240×g. After pelleting the cells, the media was removed, and the cells resuspended and seeded into a T225 flask with 45 mL of media. Cells were placed in an incubator set to 37° C. and 5.0% CO2. Media was exchanged every 2-3 days. Cells proliferated until they reached 80-90% confluency. Upon reaching this threshold. cells were passaged. Cells were washed with DPBS and detached using TrypLE Express (Gibco). The detached cells were neutralized, centrifuged, and seeded in culture vessels at a density of 10,000 cells/cm^2.
# For experimental harvests cells were detached as when passaging and neutralized with media. A 100 μL aliquot was taken and used for cell counts. Cells were counted on a NC-200 Nucleocounter (ChemoMetec). The remaining dissociated cells were centrifuged for 2 minutes at 4000 RPM. Following centrifugation, the supernatant was aspirated, and the cell pellets were immediately frozen at −80° C. for future RNA extraction.
# Cisplatin is a platinum-based chemotherapy drug that inhibits DNA synthesis. Cisplatin is used in the treatment of many cancers, including breast cancer. Cisplatin (Millipore-Sigma: 232120) was dissolved in DPBS with 140 mM NaCl at a concentration of 1 mg/mL and stored at room temperature, protected from light. The solution was further diluted in culture media to obtain the desired concentration for experiments. DPBS with 140 mM NaCl was used as a vehicle control. Cisplatin at 20 μM was used as a positive control as this concentration reduced the cell number by more than 90%. Lower concentrations of 2 μM and 0.667 μM (one tenth and one thirtieth the concentration of the positive control, respectively) were used in combination with PEMF stimulation.
# Cells were exposed, as previously described for mesenchymal stem cells, to a spatially uniform, time-varying magnetic field using Helmholtz coils. A description of the exposure system (coils, signal generator, incubators, etc.) is described in Example One.
# Table 3 contains the parameters describing four different fields covering a wide range of shapes, intensities and frequencies. The two sinusoids are simple sine waves with no offset. The pulse waveform has a 10% duty cycle, creating sudden, large changes in the field's magnetic flux density (B). Finally, Experiment 4 consists of pairs of triangular waves with increasing separation equivalent to a decreasing frequency from 36 Hz to 10 Hz. The waveform consists of 15 pairs and has a period of approximately 900 ms. Positive results with Experiments 3 and 4 (described below) ledto repeating the exposures with the addition of a chemotherapy drug cisplatin). Additionally, Experiments 3 and 4 were also performed with “healthy” chondrocytes.
# Chemotherapy drugs, including cisplatin, are a commonplace and proven method of treating cancer tumours despite a plethora of side effects. Large doses of these drugs can be a significant monetary and health concern for many patients so any method of reducing the dosage with an adjunct therapy is welcome. To test the combined effect of cisplatin and EMF exposure, two low concentrations (2 μM and 0.667 μM) of cisplatin were added to the culture media of MDA-MB-231 cells subjected to Experiment 3 and 4 exposures. Additionally, cells were cultured with 20 μM of cisplatin and no exposure as a “positive” control. […] The exposed cell groups are plotted relative to the unstimulated vehicle sample and when cultured with the vehicle show the same decrease in cell count as in Figure H (without vehicle). […]
compound,measurement,setting,value
"N.N.[Cl][Pt][Cl] [cisplatin, Cisplatin]",effect on cell growth of adding EMF exposure to cisplatin,"cisplatin 2 μM and 0.667 μM plus EMF exposure Experiment 3 or 4, statistically significant vs cisplatin alone",further inhibited
same,effect on proliferation / cell count,"cisplatin 20 μM (high concentration), no EMF stimulation",drastic impact on the cell count; also recorded: inhibitory
same,reduction of cell number (cell count),,90%
same,reduction of cell number (cell count),listed as Cisplatin,more than 90%
same,reduction of cell counts by combined treatment (cisplatin + EMF exposure),"cisplatin at 10% of positive control concentration (2 μM) with EMF exposure (Experiment 3 or 4), relative to negative control, 5 days",more than 80%
same,effect on normalized cell count,"low concentrations of cisplatin (2 μM and 0.667 μM), relative to unstimulated vehicle",significantly lowered cell counts
